Values after ≈ are worked out from the molar mass of the structure shown. Read-outs that look alike come from different tables or passages of the source.
Key:
Assay type in all cases: cell-based
Aerobacter aerogenes = assay: Antibiotic activity in vitro, MIC by gradient plate method; conditions: Klebsiella aerogenes
Method: (§1) The antibiotic activity of the compounds of the invention is illustrated by the in vitro data presented in the following Tables I and II for two of the preferred compounds. In the tables, the minimum inhibitory concentrations (MIC) of the test compounds versus the indicated gram-positive and gram-negative microorganisms is presented. The MIC values were determined by the gradient plate method which is essentially the method described by Bryson and Szybalski, Science, 116, 45-46 (1952).
(§2) Table II lists the inhibitory activity in terms of MIC values against clinical isolates of penicillin resistant Staphylococcus microorganisms both in the presence of and in the absence of serum.

Escherichia coli = assay: as above
Method: as §1, §2

Klebsiella pneumoniae = assay: as above
Method: as §1, §2

Pseudomonas aeruginosa = assay: as above
Method: as §1, §2

Salmonella heidelberg = assay: as above; conditions: Salmonella enterica
Method: as §1, §2

Serratia marcescens = assay: as above
Method: as §1, §2

Shigella sp. = assay: as above
Method: as §1, §2

[1] = test system: Resistant Staphylococcus V-32; assay: Antibiotic activity vs. penicillin resistant Staphylococcus clinical isolates, MIC by gradient plate method
Method: as §1, §2

[2] = test system: Resistant Staphylococcus V-41; assay: as above
Method: as §1, §2

[3] = test system: Resistant Staphylococcus V-84; assay: as above
Method: as §1, §2

[4] = test system: Resistant Staphylococcus X-400; assay: as above
Method: as §1, §2

[5] = test system: Resistant Staphylococcus X1.1; assay: as above
Method: as §1, §2

[6] = Staphylococcus, absence of serum (NS), read-out: MIC

Row | Compound | MIC (Aerobacter aerogenes) [mg/L] | MIC (Escherichia coli) [mg/L] | MIC (Klebsiella pneumoniae) [mg/L] | MIC (Pseudomonas aeruginosa) [mg/L] | MIC (Salmonella heidelberg) [mg/L] | MIC (Serratia marcescens) [mg/L] | MIC (Shigella sp.) [mg/L] | MIC ([1]; absence of serum (NS)) [mg/L] | MIC ([1]; presence of serum (S)) [mg/L] | MIC ([2]; absence of serum (NS)) [mg/L] | MIC ([2]; presence of serum (S)) [mg/L] | MIC ([3]; absence of serum (NS)) [mg/L] | MIC ([3]; presence of serum (S)) [mg/L] | MIC [4, 6] [mg/L] | MIC ([4]; presence of serum (S)) [mg/L] | MIC ([5]; absence of serum (NS)) [mg/L] | MIC ([5]; presence of serum (S)) [mg/L]
1 | Cn1nnnc1SCC1=C(C(=O)O)N2C(=O)C(NC(=O)C(NC(=O)NC(=O)c3ccco3)c3ccccc3)C2SC1 (stereo not drawn) [Test Compound A, 7-[α-(3-α-furoyl-1-ureido)-α-phenylacetamido]-3-(1-methyl-1H-tetrazole-5-ylthiomethyl)-3-cephem-4-carboxylic acid] | 7.5 (≈ 12.5 µM) | 7 (≈ 11.7 µM) | 5 (≈ 8.35 µM) | 12.3 (≈ 20.5 µM) | 6.8 (≈ 11.4 µM) | 19.5 (≈ 32.6 µM) | 5.5 (≈ 9.19 µM) | 4.5 (≈ 7.52 µM) | 8 | 3 (≈ 5.01 µM) | 8 | 0.4 (≈ 0.668 µM) | 1 | > 20 | > 20 | 0.4 (≈ 0.668 µM) | 1
2 | Cn1nnnc1SCC1=C(C(=O)O)N2C(=O)C(NC(=O)C(NC(=O)NC(=O)c3ccco3)c3ccc(O)cc3)C2SC1 (stereo not drawn) [Test Compound B, 7-[α-(3-α-furoyl-1-ureido)-α-(4-hydroxyphenyl)acetamido]-3-(1-methyl-1H-tetrazole-5-ylthiomethyl)-3-cephem-4-carboxylic acid] | 6.5 (≈ 10.6 µM) | 5.8 (≈ 9.44 µM) | 6.3 (≈ 10.3 µM) | 10.7 (≈ 17.4 µM) | 5.8 (≈ 9.44 µM) | 14.5 (≈ 23.6 µM) | 5.5 (≈ 8.95 µM) | 13.7 (≈ 22.3 µM) | > 20 | 5 (≈ 8.14 µM) | > 20 | 1 (≈ 1.63 µM) | 1 | > 20 | > 20 | 1 (≈ 1.63 µM) | 1

From patent publication US3956292A, “7-(α-FUROYLUREIDOARYL AND CYCLOHEXADIENYLACETAMIDO) CEPHALOSPORIN ANTIBIOTICS” (Eli Lilly and Company, priority 1975, dated 1976)
